# Results published in patent US11820756B2, “Bradykinin B2 receptor antagonists” (Pharvaris Netherlands B.V., priority 2017, dated 2023).
# Molecular target: T1, human bradykinin B2 receptor (hB2R) (Homo sapiens, UniProt P30411)
# T1 sequence (P30411 1-391): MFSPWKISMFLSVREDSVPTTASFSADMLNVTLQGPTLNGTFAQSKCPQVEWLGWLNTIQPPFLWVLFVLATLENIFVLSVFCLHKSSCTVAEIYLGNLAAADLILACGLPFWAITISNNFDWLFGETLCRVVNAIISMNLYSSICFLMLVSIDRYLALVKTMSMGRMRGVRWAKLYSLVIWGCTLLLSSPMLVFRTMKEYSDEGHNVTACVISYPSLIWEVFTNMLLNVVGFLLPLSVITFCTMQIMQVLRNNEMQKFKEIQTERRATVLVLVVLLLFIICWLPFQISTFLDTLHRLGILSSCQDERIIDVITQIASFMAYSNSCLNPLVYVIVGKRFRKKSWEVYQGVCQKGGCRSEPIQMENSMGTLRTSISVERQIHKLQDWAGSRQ
# Experiment: cell-based human bradykinin B2 receptor calcium mobilization (hB2R-CaM) assay
# Details: HTS041C cells, bradykinin at EC80, calcium mobilization; read-out: IC50-value towards human bradykinin B2 receptor (hB2R)
# Description: The following cell-based human bradykinin B2 receptor calcium mobilization (hB2R-CaM) assay was used to determine the antagonistic activity of compounds selected from the example compounds Nos. 1 to 168 towards human bradykinin B2 receptor (hB2R). The assay is defined herein as a standard in vitro B2 receptor activity assay, which can be used to determine IC50 values of the compounds according to the present invention, e. g. the compounds shown in Examples 1-11.
# The antagonistic activity of compounds according to the present invention was investigated with the hB2R-CaM assay using the B2 Bradykinin Receptor Stable Cell Line HTS041C (Eurofins, St. Charles MO) and the FLIPR Calcium 6 Assay Kit (Molecular Devices, Wokingham, UK) according to the instructions of the providers. CaM assay measurements were performed with a Flexstation 3 System (Molecular Devices) which allows the precise addition of compounds (B2R antagonists) and bradykinin (B2R agonist) to the cells and adjacent continuous recording of the time-dependent CaM assay signals.
# HTS041C cells were cultured in high glucose DMEM cell culture medium (Lonza) supplemented with 10% heat-inactivated FBS (PAN Biotech), 10 mM HEPES, Penicillin/Streptomycin (200 U/mL, 200 μg/mL), 1× non-essential amino acids (Lonza), and 250 μg/mL G418 (Invivogen) in cell incubator at 37° C. in a 5% CO2 atmosphere.
# One day before the CaM assay experiments cells were seeded in 200 μL DMEM cell culture medium with reduced FBS (5%) and without G418 on clear bottom black 96 well plates (ThermoFisher #165305). Cell starvation was carried out by incubation (37° C., 5% CO2) of 70.000 cells/well for 24 h to 28 h. Immediately prior calcium dye-loading the medium was carefully aspirated and cells were washed with Hank's balanced salt solution (HBSS, Gibco) containing Ca^2+, Mg^2+ and 20 mM HEPES, adjusted to pH 7.4 (HBSS+). Calcium Dye Loading of the Cells:
# For calcium dye-loading one FLIPR 6 assay aliquot was dissolved in 20 mL HBSS+. 150 μL of the dye loading solution was added to cell plate and incubated for 120 min at 37° C. and 5% CO2. After dye loading the cell plate was immediately transferred to the pre-warmed (37° C.) Flexstation 3 System for CaM assaying.
# Freshly prepared compound (B2 receptor antagonists) dilution series (8 pt, n=2) and bradykinin (B2 receptor agonist) solution in non-binding plates (Costar) were transferred to the Flexstation System (source plate) shortly before starting the experiment. Bradykinin was added in EC80 concentration determined in n>3 preliminary experiments with 8 pt concentration response curves (n=8)). CaM assay was executed by Flexstation 3 System starting with recording of calcium-sensitive dye fluorescence in bottom-read Flex modus with ex/em=485 nm/525 nm, cut off(em)=[…]. After 20 s, 50 μL of 4-fold concentrated compound dilutions were added to the cells resulting in a final DMSO (Sigma) concentration of 0.1% in the cell plate. CaM signals were monitored for 80 s after additions for detection of potential agonistic activities. Prior to bradykinin stimulus compound- and vehicle-treated cells were incubated for 25 min at 37° C. within the Flexstation System. Then 50 μL of a 5-fold concentrated bradykinin solution (HBSS+, 0.1% DMSO) was added to trigger CaM signals (Read out: Max-Min values) which were measured for 80 s post bradykinin stimulus.
# IC50 determinations were performed by 4 parameter logistic model curve fitting of the 8 pt (n=2) compound concentration response curves using XLFIT (IDBS) software.
# Relative IC50 values of the test compounds were determined with the same hB2R-CaM assay as in Example 12.
row,Structure (SMILES),IC50 [nM]
1,Cc1cc(-n2cc(F)cn2)c2cccc(OCc3c(Cl)cc(F)cc3[C@H](C)NC(=O)C(C)(C)O)c2n1 [Compound 23],51 to 250
2,CCOCC(=O)N[C@@H](C)c1cc(F)cc(Cl)c1COc1cccc2c(-c3ncnn3C)cc(C)nc12 [Compound 84],≤ 50
3,Cc1cc(-n2cc(F)cn2)c2cccc(OCc3c(Cl)cc(F)cc3[C@H](C)NC(=O)c3cc(C)n(C)n3)c2n1 [Compound 86],51 to 250
4,Cc1cc(-n2cc(F)cn2)c2cccc(OCc3c(Cl)cc(F)cc3[C@H](C)NC(=O)C3(C)COC3)c2n1 [Compound 58],≤ 50
5,Cc1cc(-n2cc(F)cn2)c2cccc(OCc3c(Cl)cc(F)cc3[C@H](C)NC(=O)[C@@H](O)CC(C)C)c2n1 [Compound 46],51 to 250
6,Cc1cc(-c2ncnn2C)c2cccc(OCc3c(Cl)cc(F)cc3[C@H](C)NC(=O)C(F)F)c2n1 [Compound 147],≤ 50
7,Cc1cc(-n2nc(C)nc2C)c2cccc(OCc3c(Cl)cc(F)cc3[C@H](C)NC(=O)COC(F)(F)F)c2n1 [Compound 139],≤ 50
8,Cc1cc(-c2ncnn2C)c2cccc(OCc3c(Cl)cc(F)cc3[C@H](C)NC(=O)C(C)(C)O)c2n1 [Compound 64],≤ 50
9,Cc1cc(-n2cc(F)cn2)c2cccc(OCc3c(Cl)cc(F)cc3[C@H](C)NC(=O)c3coc(C)n3)c2n1 [Compound 92],≤ 50
10,Cc1cc(-n2cc(F)cn2)c2cccc(OCc3c(Cl)cc(F)cc3[C@H](C)NC(=O)[C@@H]3CC[C@H](C)O3)c2n1 [Compound 132],≤ 50
11,Cc1cc(-n2cc(F)cn2)c2cccc(OCc3c(Cl)cc(F)cc3[C@H](C)NC(=O)[C@@H]3CCCO3)c2n1 [Compound 14],≤ 50
12,Cc1cc(-n2cnc(C)n2)c2cccc(OCc3c(Cl)cc(F)cc3[C@H](C)NC(=O)c3cnco3)c2n1 [Compound 96],51 to 250
13,CO[C@H](C)C(=O)N[C@@H](C)c1cc(F)cc(Cl)c1COc1cccc2c(-n3cc(F)cn3)cc(C)nc12 [Compound 17],≤ 50
14,[2H][C@@](C)(NC(=O)c1cocn1)c1cc(F)cc(Cl)c1COc1cccc2c(-c3ncnn3C)cc(C)nc12 [Compound 199],≤ 50
15,CCn1ncnc1-c1cc(C)nc2c(OCc3c(Cl)cc(F)cc3[C@H](C)NC(=O)c3ccon3)cccc12 [Compound 141],≤ 50
16,CC[C@@H](O)C(=O)N[C@@H](C)c1cc(F)cc(Cl)c1COc1cccc2c(-n3nccn3)cc(C)nc12 [Compound 34],51 to 250
17,Cc1cc(-n2cc(F)cn2)c2cccc(OCc3c(Cl)cc(F)cc3[C@H](C)NC(=O)c3cc(C)on3)c2n1 [Compound 88],51 to 250
18,CC[C@@H](O)C(=O)N[C@@H](C)c1cc(F)cc(Cl)c1COc1cccc2c(-n3cc(F)cn3)cc(C)nc12 [Compound 24],51 to 250
19,Cc1cc(-c2ncnn2C)c2cccc(OCc3c(Cl)cc(F)cc3[C@H](C)NC(=O)c3coc(C)n3)c2n1 [Compound 130],≤ 50
20,Cc1cc(-c2ncnn2C)c2cccc(OCc3c(Cl)cc(F)cc3[C@H](C)NC(=O)CC(F)F)c2n1 [Compound 197],≤ 50
21,Cc1cc(-c2ncnn2C)c2cccc(OCc3c(Cl)cc(F)cc3[C@H](C)NC(=O)c3cnco3)c2n1 [Compound 120],≤ 50
22,Cc1cc(-n2cc(F)cn2)c2cccc(OCc3c(Cl)cc(F)cc3[C@H](C)NC(=O)CO)c2n1 [Compound 49],51 to 250

row,Structure (SMILES),IC50 [nM]
1,[2H][C@@](C)(NC(=O)COC(F)F)c1cc(F)cc(Cl)c1COc1cccc2c(-n3ncnc3C)cc(C)nc12 [Compound 168],≤ 50
2,Cc1cc(-n2ncnc2C)c2cccc(OCc3c(Cl)cc(F)cc3[C@H](C)NC(=O)CC(F)F)c2n1 [Compound 173],≤ 50
3,Cc1cc(-n2cc(F)cn2)c2cccc(OCc3c(Cl)cc(F)cc3[C@H](C)NC(=O)[C@H](C)CO)c2n1 [Compound 59],≤ 50
4,Cc1cc(-n2ncnc2C)c2cccc(OCc3c(Cl)cc(F)cc3[C@H](C)NC(=O)CC(F)(F)F)c2n1 [Compound 179],≤ 50
5,Cc1cc(-n2cc(F)cn2)c2cccc(OCc3c(Cl)cc(F)cc3[C@H](C)NC(=O)[C@@H]3CCOC3)c2n1 [Compound 19],≤ 50
6,[2H][C@@](C)(NC(=O)[C@H](C)F)c1cc(F)cc(Cl)c1COc1cccc2c(-n3ncnc3C)cc(C)nc12 [Compound 212],≤ 50
7,CC[C@H](O)C(=O)N[C@@H](C)c1cc(F)cc(Cl)c1COc1cccc2c(-n3cc(F)cn3)cc(C)nc12 [Compound 25],51 to 250
8,Cc1cc(-c2ncnn2C)c2cccc(OCc3c(Cl)cc(F)cc3[C@H](C)NC(=O)c3ccncc3)c2n1 [Compound 163],≤ 50
9,Cc1cc(-c2ncnn2C)c2cccc(OCc3c(Cl)cc(F)cc3[C@H](C)NC(=O)[C@@H](C)O)c2n1 [Compound 63],≤ 50
10,Cc1cc(-c2ncnn2C)c2cccc(OCc3c(Cl)cc(F)cc3[C@H](C)NC(=O)c3cccnc3)c2n1 [Compound 162],≤ 50
11,Cc1cc(-c2ncc(C#N)n2C)c2cccc(OCc3c(Cl)cc(F)cc3[C@H](C)NC(=O)C(C)F)c2n1 (some centres unmarked) [Compound 207],≤ 50
12,CC[C@H](NC(=O)COC(F)(F)F)c1cc(F)cc(Cl)c1COc1cccc2c(-n3ncnc3C)cc(C)nc12 [Compound 167],≤ 50
13,Cc1cc(-n2ncnc2C)c2cccc(OCc3c(Cl)cc(F)cc3[C@H](C)NC(=O)c3cnco3)c2n1 [Compound 95],≤ 50
14,Cc1cc(-n2cnc(C)n2)c2cccc(OCc3c(Cl)cc(F)cc3[C@H](C)NC(=O)[C@@H](C)O)c2n1 [Compound 98],251 to 1000
15,"Cc1cc(-n2cc(F)cn2)c2cccc(OCc3c(Cl)cc(F)cc3[C@H](C)N(C)C(=O)[C@H](C)O)c2n1 [Compound 2, (S)—N—((S)-1-(3-chloro-5-fluoro-2-((4-(4-fluoro-1H-pyrazol-1-yl)-2-methylquinolin-8-yloxy)methyl)phenyl)ethyl)-2-hydroxy-N-methylpropanamide]",≤ 50
16,"Cc1cc(-n2ncnc2C)c2cccc(OCc3c(Cl)cc(F)cc3[C@H](C)NC(=O)COC(F)F)c2n1 [Compound 9, (S)—N-(1-(3-chloro-5-fluoro-2-((2-methyl-4-(5-methyl-1H-1,2,4-triazol-1-yl)quinolin-8-yloxy)methyl)phenyl)ethyl)-2-(difluoromethoxy)acetamide]",≤ 50
17,Cc1cc(-n2cc(F)cn2)c2cccc(OCc3c(Cl)cc(F)cc3[C@H](C)NC(=O)c3ocnc3C)c2n1 [Compound 91],≤ 50
18,Cc1cc(-n2cc(F)cn2)c2cccc(OCc3c(Cl)cc(F)cc3[C@H](C)NC(=O)[C@@H]3CNC(=O)N3)c2n1 [Compound 113],51 to 250
19,Cc1cc(-c2ncnn2C)c2cccc(OCc3c(Cl)cc(F)cc3[C@H](C)NC(=O)c3cc(C)n(C)n3)c2n1 [Compound 129],≤ 50
20,Cc1cc(-c2ncnn2C)c2cccc(OCc3c(Cl)cc(F)cc3[C@H](C)NC(=O)[C@@H]3CC[C@H](C)O3)c2n1 [Compound 133],≤ 50
21,Cc1cc(-c2ncnn2C)c2cccc(OCc3c(Cl)cc(F)cc3[C@H](C)NC(=O)c3ccon3)c2n1 [Compound 122],≤ 50
22,Cc1cc(-c2[nH]ncc2C)c2cccc(OCc3c(Cl)cc(F)cc3[C@H](C)NC(=O)C(C)(C)O)c2n1 [Compound 189],≤ 50
